This is an account of results in ChEMBL document CHEMBL1201862, “PubChem BioAssay data set” (2004).

Activity calls are given as the source filed them.

Test [1] concerns the target T1, Cytochrome P450 3A4 (Homo sapiens, UniProt P08684). The note with it: Potency.
The test system of test [2] is Vero. Put plainly: cells. The test is classed as functional. The note with it: Chlorocebus sabaeus.
In test [3] the target is T2, RNA-binding protein pos-1 (Caenorhabditis elegans, UniProt G5EF15).
T2 sequence (G5EF15 whole entry): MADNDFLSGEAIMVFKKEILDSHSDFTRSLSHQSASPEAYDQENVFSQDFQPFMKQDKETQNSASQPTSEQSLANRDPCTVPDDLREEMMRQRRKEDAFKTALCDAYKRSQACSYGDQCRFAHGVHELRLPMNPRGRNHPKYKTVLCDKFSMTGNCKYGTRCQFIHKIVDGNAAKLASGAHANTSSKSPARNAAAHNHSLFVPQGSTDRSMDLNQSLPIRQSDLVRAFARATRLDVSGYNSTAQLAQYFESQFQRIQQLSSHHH
Put plainly: inhibitors of POS-1/mex-3 RNA binding, dose response, biochemical, fluorescence polarization (AID 1964).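 Note: purified POS-1 fused to maltose binding protein made in E. coli; potency of compounds blocking POS-1 binding to fluorescent RNA.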

Test [4] addresses T3, Zinc finger protein mex-5 (Caenorhabditis elegans, UniProt Q9XUB2).
T3 sequence (Q9XUB2 whole entry): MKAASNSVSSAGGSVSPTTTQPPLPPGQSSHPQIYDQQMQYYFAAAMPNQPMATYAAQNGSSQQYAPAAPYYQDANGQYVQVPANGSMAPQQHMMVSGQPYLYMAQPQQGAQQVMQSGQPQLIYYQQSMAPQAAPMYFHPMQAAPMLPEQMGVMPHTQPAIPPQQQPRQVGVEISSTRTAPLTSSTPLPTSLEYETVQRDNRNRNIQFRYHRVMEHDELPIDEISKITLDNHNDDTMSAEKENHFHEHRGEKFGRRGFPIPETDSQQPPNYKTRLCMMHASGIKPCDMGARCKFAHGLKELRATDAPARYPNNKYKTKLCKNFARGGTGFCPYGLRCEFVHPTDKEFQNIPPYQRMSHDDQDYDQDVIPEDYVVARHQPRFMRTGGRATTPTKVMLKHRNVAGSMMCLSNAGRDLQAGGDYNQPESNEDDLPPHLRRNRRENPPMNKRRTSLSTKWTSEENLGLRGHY
Briefly: MEX-5/TCR-2 RNA interaction inhibitors, dose response, biochemical, C. elegans, fluorescence polarization (AID 1960).

Test [5] can be described thus: inhibitors of SNCA 5'UTR-driven reporter translation, confirmation, H4 neuroglioma cells, luminescence (AID 1988). In kind it is functional, cell-based.
A short description of test [6]: inhibitors of firefly luciferase expression or activity, dose response, H4 neuroglioma cells, luminescence (AID 1990). In kind it is functional, cell-based.
Test [7] is described as follows: Luminescence Cell-Based Dose Response HTS to Identify Inhibitors of 5'UTR Stem-Loop Driven Prion Protein mRNA Translation in H4 Neuroglioblastoma Cells. [Related pubchem assays: 1827 (Project Summary), 1813 (Primary HTS)]. In kind it is functional.
The target of test [8] is FAD-linked sulfhydryl oxidase ALR (Homo sapiens, UniProt P55789). Briefly: inhibitors of human ALR sulfhydryl oxidase, dose response, biochemical, H2O2 detection, luminescence, cherry-pick (AID 493248).
Chain of FAD-linked sulfhydryl oxidase ALR (P55789 whole entry): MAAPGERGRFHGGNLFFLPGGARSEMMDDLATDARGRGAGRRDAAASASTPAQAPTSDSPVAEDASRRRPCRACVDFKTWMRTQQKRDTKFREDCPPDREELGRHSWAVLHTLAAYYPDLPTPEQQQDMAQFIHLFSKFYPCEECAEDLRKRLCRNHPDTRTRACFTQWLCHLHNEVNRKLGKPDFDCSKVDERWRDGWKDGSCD
Test [9] in a line: Luminescence Cell-Based Dose Confirmation HTS to Identify Activators of 5'UTR Stem-Loop Driven Alpha-Synuclein mRNA Translation in H4 Neuroglioblastoma Cells. [Related pubchem assays: 1829 (Project Summary), 1814 (Primary HTS)]. The test is classed as functional.
The nature of test [10]: C. albicans growth with fluconazole, confirmation, fluorescence, retest (AID 2467). In kind it is functional, cell-based.
A short description of test [11]: NIH-3T3 fibroblast cytotoxicity, dose response, cytotoxicity control, cell-based, fluorescence, Alamar Blue, secondary assay (AID 2327).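 Note: NIH-3T3 mouse fibroblasts cultured with fluconazole at 8 µg/mL.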 In kind it is functional.
For test [12], the system named is H4. Briefly: Luminescence Cell-Based Dose Response HTS to Identify Activators of 5'UTR Stem-Loop Driven Prion Protein mRNA Translation in H4 Neuroglioblastoma Cells. [Related pubchem assays: 1829 (Project Summary), 1814 (Primary HTS)]. In kind it is functional. The note with it: Homo sapiens.
Test [13] in a line: Luminescence Cell-Based Dose Retest to Confirm Inhibitors of Cancer Stem Cells. [Related pubchem assays (depositor defined):AID2717, AID2721]. The test is classed as functional. The note with it: Homo sapiens.
A short description of test [14]: HEp-2 cell cytotoxicity, dose response, cytotoxicity control for RSV inhibitor project, HTS (AID 2410). The note with it: human respiratory syncytial virus. In kind it is functional.
A short description of test [15]: Luminescence Cell-Based Dose Response HTS to Identify Activators of Luciferase Translation or Activity in H4 […] Cells. [Related pubchem assays: 1829 (Project Summary), 1814 (Primary HTS)]. The test is classed as functional.
Test [16] concerns the target T1, Cytochrome P450 3A4.
Test [17] concerns the target Cytochrome P450 2C9 (Homo sapiens, UniProt P11712).
The target in test [18] is T4, Rac GTPase-activating protein 1 (Homo sapiens, UniProt Q9H0H5).
T4 sequence (Q9H0H5 whole entry): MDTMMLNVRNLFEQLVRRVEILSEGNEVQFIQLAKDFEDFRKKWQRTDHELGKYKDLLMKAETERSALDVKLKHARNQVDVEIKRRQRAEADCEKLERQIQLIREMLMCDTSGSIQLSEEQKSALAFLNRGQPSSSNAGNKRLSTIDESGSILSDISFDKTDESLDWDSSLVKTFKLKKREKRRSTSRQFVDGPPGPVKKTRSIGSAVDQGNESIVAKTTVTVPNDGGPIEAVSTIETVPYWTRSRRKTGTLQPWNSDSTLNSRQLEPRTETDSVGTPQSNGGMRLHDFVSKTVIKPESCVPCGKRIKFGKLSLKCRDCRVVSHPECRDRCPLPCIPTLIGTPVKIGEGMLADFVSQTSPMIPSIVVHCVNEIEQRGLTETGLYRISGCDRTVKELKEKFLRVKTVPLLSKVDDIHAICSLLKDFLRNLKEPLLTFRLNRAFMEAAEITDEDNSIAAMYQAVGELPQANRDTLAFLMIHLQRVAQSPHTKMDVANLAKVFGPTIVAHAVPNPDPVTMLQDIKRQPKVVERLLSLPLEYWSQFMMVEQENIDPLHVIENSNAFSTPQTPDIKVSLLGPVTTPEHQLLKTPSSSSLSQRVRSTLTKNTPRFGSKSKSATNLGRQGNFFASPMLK
Put plainly: MgcRacGAP GTPase-activating activity inhibitors, confirmation, biochemical, ADP Hunter fluorescence, primary and confirmatory (AID 624330). In kind it is functional.

For test [19], the target named is Large T antigen (Simian virus 40, UniProt P03070). In kind it is functional, Betapolyomavirus macacae.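 Note: Confirmatory-stage PubChem screen for compounds that inhibit SV40 T antigen.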
Chain of Large T antigen (P03070 whole entry): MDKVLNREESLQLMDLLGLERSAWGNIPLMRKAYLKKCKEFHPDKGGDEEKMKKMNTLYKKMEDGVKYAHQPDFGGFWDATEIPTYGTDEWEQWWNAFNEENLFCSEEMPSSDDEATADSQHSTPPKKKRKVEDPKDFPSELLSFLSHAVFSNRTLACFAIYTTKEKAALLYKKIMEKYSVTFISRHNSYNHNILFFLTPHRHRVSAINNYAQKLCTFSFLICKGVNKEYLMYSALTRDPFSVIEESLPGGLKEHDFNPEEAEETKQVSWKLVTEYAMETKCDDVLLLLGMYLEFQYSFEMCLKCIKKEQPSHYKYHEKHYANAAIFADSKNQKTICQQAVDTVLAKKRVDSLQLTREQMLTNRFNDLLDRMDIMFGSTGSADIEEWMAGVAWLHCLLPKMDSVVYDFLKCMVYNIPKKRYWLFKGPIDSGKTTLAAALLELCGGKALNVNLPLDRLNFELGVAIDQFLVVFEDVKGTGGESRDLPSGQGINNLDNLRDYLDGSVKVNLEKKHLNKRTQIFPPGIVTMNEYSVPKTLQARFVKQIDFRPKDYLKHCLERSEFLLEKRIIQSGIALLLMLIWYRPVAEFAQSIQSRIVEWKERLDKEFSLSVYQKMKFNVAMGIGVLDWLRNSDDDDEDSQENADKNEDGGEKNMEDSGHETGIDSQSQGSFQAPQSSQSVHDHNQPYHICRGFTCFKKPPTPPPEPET
The target in test [20] is T5, Corticotropin-releasing factor receptor 2/Corticotropin-releasing factor-binding protein (Homo sapiens, UniProt P24387+Q13324).
T5 sequence (Q13324 whole entry): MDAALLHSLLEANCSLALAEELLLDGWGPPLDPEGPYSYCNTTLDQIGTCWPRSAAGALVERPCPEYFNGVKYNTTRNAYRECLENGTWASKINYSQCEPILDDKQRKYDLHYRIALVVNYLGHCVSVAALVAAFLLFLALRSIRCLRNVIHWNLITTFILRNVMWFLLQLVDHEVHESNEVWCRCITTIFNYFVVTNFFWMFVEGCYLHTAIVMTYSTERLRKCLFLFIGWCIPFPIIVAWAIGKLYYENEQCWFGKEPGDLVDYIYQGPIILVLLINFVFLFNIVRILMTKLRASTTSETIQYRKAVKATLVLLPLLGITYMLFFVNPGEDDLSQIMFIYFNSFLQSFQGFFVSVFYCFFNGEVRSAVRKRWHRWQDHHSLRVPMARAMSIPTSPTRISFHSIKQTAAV
T5 sequence (P24387 whole entry): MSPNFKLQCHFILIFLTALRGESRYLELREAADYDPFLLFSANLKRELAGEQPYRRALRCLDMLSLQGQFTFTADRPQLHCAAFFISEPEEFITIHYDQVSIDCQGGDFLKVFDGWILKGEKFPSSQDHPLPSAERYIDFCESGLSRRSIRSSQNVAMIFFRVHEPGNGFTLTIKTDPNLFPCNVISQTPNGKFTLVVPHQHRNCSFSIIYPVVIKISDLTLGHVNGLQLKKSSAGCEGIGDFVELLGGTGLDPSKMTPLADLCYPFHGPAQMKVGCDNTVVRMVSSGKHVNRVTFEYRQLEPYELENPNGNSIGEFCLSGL
Put plainly: activators of CRF receptor 2 with binding protein – uHTS hits, confirmation (AID 602473). In kind it is functional. The note with it: read-out: EC50_Mean.

T1 sequence (P08684 whole entry): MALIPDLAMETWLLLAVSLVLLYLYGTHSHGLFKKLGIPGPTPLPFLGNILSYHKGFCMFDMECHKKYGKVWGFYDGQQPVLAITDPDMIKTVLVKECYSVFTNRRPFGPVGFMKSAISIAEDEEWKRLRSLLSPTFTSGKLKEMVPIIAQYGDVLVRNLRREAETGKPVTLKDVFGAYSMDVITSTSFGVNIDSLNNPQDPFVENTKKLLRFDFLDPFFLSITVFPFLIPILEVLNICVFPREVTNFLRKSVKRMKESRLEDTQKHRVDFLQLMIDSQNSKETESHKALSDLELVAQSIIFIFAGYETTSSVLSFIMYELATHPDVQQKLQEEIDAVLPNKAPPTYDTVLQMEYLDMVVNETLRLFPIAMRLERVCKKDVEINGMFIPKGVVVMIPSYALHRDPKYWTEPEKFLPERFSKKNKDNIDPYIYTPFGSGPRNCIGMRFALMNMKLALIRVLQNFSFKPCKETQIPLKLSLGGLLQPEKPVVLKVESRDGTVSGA
Chain of Cytochrome P450 2C9 (P11712 whole entry): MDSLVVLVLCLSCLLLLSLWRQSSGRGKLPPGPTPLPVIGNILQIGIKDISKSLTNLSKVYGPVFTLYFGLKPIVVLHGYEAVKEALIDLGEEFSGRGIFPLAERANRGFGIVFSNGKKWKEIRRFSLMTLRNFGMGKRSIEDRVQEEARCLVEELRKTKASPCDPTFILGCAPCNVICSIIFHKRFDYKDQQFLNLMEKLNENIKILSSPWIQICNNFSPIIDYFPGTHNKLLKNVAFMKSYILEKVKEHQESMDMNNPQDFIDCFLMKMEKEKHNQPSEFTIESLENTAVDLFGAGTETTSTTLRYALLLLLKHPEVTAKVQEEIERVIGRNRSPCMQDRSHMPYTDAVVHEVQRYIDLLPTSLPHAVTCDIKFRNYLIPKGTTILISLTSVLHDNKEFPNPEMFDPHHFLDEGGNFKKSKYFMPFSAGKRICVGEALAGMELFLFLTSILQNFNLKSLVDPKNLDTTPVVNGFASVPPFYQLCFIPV

Consider `O=C(OCC1CO1)C1CCCCC1C(=O)OCC1CO1` (centres undefined), for which, in [1], the AC50 was 25.1 µM (inconclusive).

With `CCN1C(C)=C(C(=O)OC)C(c2ccccc2)N2C(=O)[C@](O)(C(=O)OC)CC(C#N)=C12` (some centres undefined), the AC50 in test [1] is 3.98 µM (inconclusive).

On to `N#Cc1c(NC(=O)CSc2nc3ccccc3c(=O)n2Cc2ccco2)sc2c1CCCC2`, for which, in [2], the CC50 was > 25 µM (active).

As to `CCOC(CNC(=O)CCc1c(C)nc2nc(C)nn2c1C)OCC`, the EC50 in [3] and in [4] was > 300 µM (not active) each time.

In the case of `Cc1cc(C)c2cc(C#N)c(N3CCCN(C(S)=NCCCN(C)C)CC3)nc2c1`, the figures for the EC50 in test [5], in test [6] and in test [7] were 9.29 µM (active), > 60 µM (not active) and > 120 µM (not active), respectively.

Take `COC(=O)[C@@H]1C[C@H]2CC[C@H](O)C[C@H]2N1Cc1ccc(C(F)(F)F)cc1`: in [1], the AC50 is 12.6 µM (inconclusive).

Consider `COc1ccc(N2CC(NC(=O)N3CCN(c4ccccc4)CC3)CC2=O)cc1` (centres undefined), for which, in [8], the AC50 was 4.41 µM (active).

Turning to `Cc1ccc(C2=CSC3=NNC4(CCCCC4)NN23)cc1`, the EC50 in test [9] is 9.71 µM (active); in test [10], 1.76 µM (active); in [11] it was 22.3 µM (inconclusive); in test [12], 12.4 µM (active). For the same molecule, the AC50 in test [8] was 1.86 µM (active).

Take `O=C(NCc1nnc(S)n1-c1ccc(Cl)c(Cl)c1)c1ccco1`: in [8], the AC50 is 4.14 µM (active).

Consider `Oc1c(Cl)cc(Cl)cc1CNc1ccc(Br)cn1`, for which the results for the AC50 in [13] and in test [8] were 2.56 µM (active) and 5.33 µM (active), respectively.

In the case of `COc1ccc(NC(=O)c2ccc(NCCCN3CCOCC3)c([N+](=O)[O-])c2)cc1`, the EC50 in [3] and in test [4] was > 300 µM (not active) each time.

As to `Cc1ccc2cc(/C=C/C(=O)c3ccco3)c(Cl)nc2c1`, the CC50 in test [14] is 21.2 µM (active); in test [2], 14.3 µM (active).

For the molecule `CCOc1ccccc1C1N=C(c2ccc(OC)cc2)CC(c2ccccc2O)N1` (centres undefined), the EC50 in test [9] is 14.2 µM (active); in [12] it was 12.3 µM (active); in test [15] it was 14.3 µM (active). The CC50 in test [2] was > 25 µM (active).

Consider `CCn1c(=N)c(S(=O)(=O)c2ccc(F)cc2)cc2c(=O)n3ccccc3nc21`, for which the AC50 is 10 µM (inconclusive) in test [16] and 22.4 µM (inconclusive) in [17]. The EC50 is 7.64 µM (active) in [3] and 26.2 µM (inconclusive) in test [4].

Take `CCOc1cc(/C=C/c2cccc[n+]2C)ccc1OCC(=O)Nc1ccc(C)cc1`: the EC50 in test [3] and in test [4] was > 300 µM (not active) throughout.

`Cc1ccc(-c2c[nH]c(SCCNC(=O)c3ccco3)n2)cc1`: in test [8], the AC50 was 2.88 µM (active).

For `CC(=O)c1ccc(S(=O)(=O)NCC(=O)NC(c2nc3ccccc3[nH]2)C(C)C)cc1` (centres undefined), in test [8], the AC50 was 0.113 µM (active).

Regarding `O=C(N/N=C/c1ccc(Cl)cc1)c1cc(-c2cccnc2)nc2ccccc12`, the EC50 in test [5] was 9.23 µM (active); in test [6], > 120 µM (not active); in test [7], 12.8 µM (active).

Consider `COc1cc(/C=N/NC(=O)CCN2CCCCC2)ccc1O`, for which the AC50 in test [8] is 3.05 µM (active). Moreover, the IC50 in test [18] is 32.1 µM (active).

For `COc1ccc2c(/C=N/Nc3ccc(C(=O)O)cc3)c[nH]c2c1`, in test [8], the AC50 is 1.9 µM (active). Moreover, the IC50 in test [18] was 54.9 µM (active).

For `COc1cc(/C=N/NC2=NCCCCC2)ccc1O`, the AC50 in test [8] is 0.028 µM (active). Also, the figures for the half-maximal inhibitory concentration (IC50) in test [18] and in test [19] were 22.5 µM (active) and 6.11 µM (active), respectively.

As to `CN(C)c1ccc(N)cc1`, the AC50 in test [1] was 15.8 µM (inconclusive).

Take `Cc1cccc(/C=C\c2ccccc2)n1`: the AC50 in [1] was 15.8 µM (inconclusive).

In the case of `CC(=O)c1cc2c(cc1O)OC(C)(C)C=C2`, the AC50 in test [1] is 31.6 µM (inconclusive).

As to `C=C[C@@](C)(O)CC[C@@H]1[C@@]2(C)CCCC(C)(C)[C@@H]2CC[C@@]1(C)O`, the AC50 in test [1] was 10 µM (inconclusive).

In the case of `CC1=CC(=C(C#N)c2nc3ccccc3s2)C=C(C)N1CC1CCCO1` (centres undefined), the EC50 in [20] was 14.7 µM (active); in test [3], 12.3 µM (inconclusive); in test [4] it was 13.5 µM (inconclusive).

As to `COc1ccc(-c2coc3cc(O)ccc3c2=O)c(OC)c1` [2'-METHOXYFORMONETIN], the concentration at half-maximal activity (AC50) in test [1] is 39.8 µM (inconclusive).

Take `Nc1cc(Cl)cc(C(=O)O)c1Cl` [CHLORAMBEN]: the AC50 in [1] was 25.1 µM (inconclusive).

In the case of `Cc1cc(O)c(C=O)c(O)c1C(=O)O` [HAEMATOMMIC ACID], the AC50 in test [1] was 25.1 µM (inconclusive).
